Measured values published in patent US12551493B2, “Composition for enhancing therapeutic effect of stem cell, comprising immunosuppressant, and method for enhancing therapeutic effect of stem cell using same” (SAMSUNG LIFE PUBLIC WELFARE FOUNDATION, priority 2019, dated 2026).

Key:
Assay type in all cases: in vivo
Iba-1 microglia = assay: IHC of Iba-1 microglia in mouse brain after hMSC administration; details: normal C57B/L6 mice, hMSCs plus immunosuppressant, day 7, compared to hMSC group
Procedure: (§1) On day 7 after administration of MEM or hMSCs, the brain was extracted by performing cardiac perfusion, and then fixed in PFA, and histological staining was performed by sectioning tissue.
(§2) MEM or hMSCs were administered to normal C57BL/6 and immunodeficient BALB/c nude mice under the same conditions as in Example 3. […]

helper T cells (CD4) = assay: IHC of helper T cells (CD4) in mouse brain after hMSC administration; details: normal C57B/L6 mice, hMSCs plus immunosuppressant, day 7, compared to hMSC group
Procedure: as §1, §2

[1] = system: human-derived mesenchymal stem cells (hMSCs); assay: qPCR of human-specific ALU DNA sequence in mouse brain (residual amount of hMSCs); details: normal C57B/L6 mice, hMSCs plus immunosuppressant, compared to hMSC-alone administration group

C=CC[C@@H]1/C=C(\C)C[C@H](C)C[C@H](OC)[C@H]2O[C@@](O)(C(=O)C(=O)N3CCCC[C@H]3C(=O)O[C@H](/C(C)=C/[C@@H]3CC[C@@H](O)[C@H](OC)C3)[C@H](C)[C@@H](O)CC1=O)[C@H](C)C[C@@H]2OC [tacrolimus]
expression of Iba-1 (IHC) (Iba-1 microglia): not statistically significant | expression of CD4 (IHC) (helper T cells (CD4)): reduced | retention rate (survival rate) of stem cells (qPCR) [1]: enhanced
